Measurements published in EP0386951A2 (ELI LILLY AND COMPANY, priority 1989, dated 1990).

Key:
[1] = Stability of daptomycin reconstituted in buffered diluents and diluted in 5% dextrose (appearance of degradation products); format: physicochemical; settings: dissolved in 5% dextrose solution
Text: The effectiveness of the buffered diluents in suppressing the appearance of degradation products is shown below in Table 2: Table 2: […]

[2] = Stability of daptomycin reconstituted to 1 mg/ml in normal saline or 5% dextrose, stored at room and refrigerated temperature; format: physicochemical; settings: solutions of daptomycin and dextrose, 24 h
Experimental: Next, the solutions were stored at room temperature (approximately 25°C) and refrigerated temperatures and assayed at the 6 h and 24 h timepoints.

With daptomycin the degradation ([1]; 24 h at 25°C) was 15-20%, the degradation ([1]; 7 days at 5°C) was 15-20% and the potency loss ([2]; refrigerated temperature) was “about 5%”. For the same substance, the potency loss ([2]; room temperature) was 17%.
